Where two headings read alike, the source gives them in different places.
Legend:
[1] = biological target: T1, (Rhodococcus erythropolis, UniProt P13448+P13449); experiment: Preservation of nitrile hydration activity of cell extract, Brevibacterium CBS-717; assay type: biochemical; conditions: 48 h; Brevibacterium CBS-717 extract; 1 ml + 1 ml buffer pH 6.5 containing 10 g/l stabilizer; 2 days at 20° C.; read-out: % Residual Activity
T1 construct: whereby a cell extract was obtained; endogenous in cells; host or cells: Brevibacterium CBS-717, French press cell extract
Procedure: In each of the following experimental examples, 0.1 ml of an enzyme solution was charged into a beaker containing 9.9 ml of phosphate buffer and irradiated with a 100-W EYE LAMP (supplied by Toshiba, Japan) positioned at a distance of 50 cm for 30 minutes in a bath maintained at 10° C. to induce the enzyme activity to the fullest extent. The resulting solution was then added to 10 ml of M/20 phosphate buffer (pH 7.7) containing 5.0% by weight of acrylonitrile to cause reaction at 10° C. for 10 minutes. The nitrile hydration activity of the test enzyme solution was determined by measuring the quantity of acrylamide produced by gas chromatography, the capability of producing 1μ mole of acrylamide per ml of the enzyme solution per minute being designated as 1 unit (U). […]
(§1) The cell extract thus obtained was divided into two aliquots, 1 ml of one aliquot being mixed with 1 ml of M/10 phosphate buffer (pH 6.5) containing 10 g/l of ammonium isobutyrate, and 1 ml of the other aliquot being mixed with 1 ml of M/10 phosphate buffer (pH 6.5) as a comparison example. Both solutions were left standing for 2 days at 20° C., and the nitrile hydration activity levels were measured before and after each of the solutions were left standing to calculate % residual activity.

nitrilase [2] = conditions: 1 ml + 1 ml buffer pH 6.5 containing 10 g/l stabilizer, 2 days at 20° C.
Procedure: In each of the following experimental examples, 0.1 ml of an enzyme solution was charged into a beaker containing 9.9 ml of phosphate buffer and irradiated with a 100-W EYE LAMP (supplied by Toshiba, Japan) positioned at a distance of 50 cm for 30 minutes in a bath maintained at 10° C. to induce the enzyme activity to the fullest extent. The resulting solution was then added to 10 ml of M/20 phosphate buffer (pH 7.7) containing 5.0% by weight of acrylonitrile to cause reaction at 10° C. for 10 minutes. The nitrile hydration activity of the test enzyme solution was determined by measuring the quantity of acrylamide produced by gas chromatography, the capability of producing 1μ mole of acrylamide per ml of the enzyme solution per minute being designated as 1 unit (U).
Each aliquot of a suspension of cells of a genus as shown in Table 2 prepared as in Comparison Example 1 was subjected to French press treatment and centrifugation similarly as in Comparison Example 1, whereby a cell extract was obtained.
as §1

[3] = biological target: T2, (Rhodococcus erythropolis, UniProt P13448+P13449); experiment: Preservation of nitrile hydration activity of cell extract (crude enzyme solution), stabilizer added before crushing cells; assay type: biochemical, Corynebacterium strain N-774(FERM P-4446); conditions: left standing 2 days at 20° C.; buffer containing 10 g/l stabilizer mixed 1:1, pH 6.5
T2 sequence (P13448 2-207 limits assumed): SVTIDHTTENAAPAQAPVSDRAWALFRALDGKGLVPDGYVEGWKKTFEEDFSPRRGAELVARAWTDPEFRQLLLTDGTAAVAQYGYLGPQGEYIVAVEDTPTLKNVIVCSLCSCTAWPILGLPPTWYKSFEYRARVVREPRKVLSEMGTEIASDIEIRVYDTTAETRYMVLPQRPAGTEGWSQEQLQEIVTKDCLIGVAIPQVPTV
T2 sequence (P13449 1-212): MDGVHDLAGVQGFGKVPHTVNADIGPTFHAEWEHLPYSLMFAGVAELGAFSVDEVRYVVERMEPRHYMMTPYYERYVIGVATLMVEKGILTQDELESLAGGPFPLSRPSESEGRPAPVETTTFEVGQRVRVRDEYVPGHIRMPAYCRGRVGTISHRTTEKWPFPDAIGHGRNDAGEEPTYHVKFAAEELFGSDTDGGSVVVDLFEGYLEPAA
Procedure: (§2) A culture medium comprising 10 g/l of glucose, 5 g/l of peptone, 3 g/l of yeast extract, and 3 g/l of malt extract was adjusted to a pH of 7.2, and 100 ml of the resulting culture medium was sterilized in a 500-ml Erlenmeyer flask.
(§3) After cooling, the sterilized culture medium was inoculated with 1 ml of a culture fluid obtained by precultivating strain N-774(FERM P-4446) of the genus Corynebacterium in the same culture medium as is described above for 2 days, and cultivation was carried out aerobically at 30° C. for 2 days.
(§4) Cells were separated from the culture fluid by centrifugation (3° C., 10,000 rpm, 20 minutes) and washed with a physiological saline. The washed cells were subjected to centrifugation under the same conditions and then suspended in a physiological saline to obtain a suspension of washed cells.
(§5) The residual nitrile hydration activity percent (in Table 1, as in all succeeding tables, abbreviated to % residual activity) was calculated on the basis of the data thus obtained.

nitrilase [4] = biological target: T3, nitrilase (Rhodococcus erythropolis, UniProt P13448+P13449); experiment: as above; assay type: biochemical, Corynebacterium strain N-774(FERM P-4446)
T3 sequence (P13448 2-207 limits assumed): T2 sequence (P13448 2-207 limits assumed)
T3 sequence (P13449 1-212): T2 sequence (P13449 1-212)
Procedure: as §2, §3, §4, §5

For CC(C)C(=O)O.N [ammonium isobutyrate], the activity at 5000 µg/mL [1] was 89%, the “% Residual Activity” value (nitrilase [2]; Bacillus CBS-494 extract) was 83% and the “% Residual Activity” value (nitrilase [2]; Bacteridium CBS-496 extract) was 78%. For the same molecule, the “% Residual Activity” value (nitrilase [2]; Micrococcus CBS-497 extract) was 91%, the “% Residual Activity” value (nitrilase [2]; Nocardia N-775 extract) was 93% and the “% Residual Activity” value [3] was 92%. The “Activity Before Being Left Standing” value (nitrilase [4]; cell suspension mixed 1:1 with M/10 phosphate buffer pH 6.5 containing 10 g/l stabilizer, then French press) was 1.3 × 10^3 U/ml and the “Activity After Being Left Standing” value (nitrilase [4]; same extract after 2 days at 20° C.) was 1.2 × 10^3 U/ml.
